Test results: patent publication US7780989B2, “Process for the preparation of crystalline nano-particle dispersions” (AstraZeneca AB, priority 2002, dated 2010)
Like-named read-outs stand apart in the source and are kept apart here.

Test: Crystalline and amorphous solubility of the substance
Format: physicochemical
Conditions: water
Description: The solubility of the substance in water may be measured using a conventional technique. For example, a saturated solution of the substance is prepared by adding an excess amount of the substance to water at 25° C. and allowing the solution to equilibrate for 48 hours. Excess solids are removed by centrifugation or filtration and the concentration of the substance in water is determined by a suitable analytical technique such as HPLC. Without wishing to be bound by theory, it is thought that the formation of the initial suspension of amorphous particles following combination of the first solution with the aqueous phase promotes the subsequent formation of a uniform dispersion of nano-crystalline particles during the subsequent sonication. […] It is thought that the presence of the dispersion of amorphous particles during the sonication provides a reservoir of material in solution for the crystallisation step and thereby maintains a high and constant level of super-saturation relative to the crystalline solubility because of the higher amorphous solubility. The high and relatively constant degree of supersaturation provided by the presence of the amorphous particles provides favorable conditions for the formation of a large number of primary nuclei upon application of the ultrasound to the dispersion of amorphous particles. […]

In the case of `CCOC(=O)C1=C(C)NC(C)=C(C(=O)OC)C1c1cccc(Cl)c1Cl` (centres unmarked) [felodipine], the solubility (25 °C, thermodynamic from solid, crystalline form, read-out: crystalline solubility) is reported as 2 µM and the solubility (amorphous form, read-out: amorphous solubility) is reported as ~24 µM.
